Source: patent US6872841B2 (The University of North Carolina at Chapel Hill, priority 2002, dated 2005)
Like-named read-outs stand apart in the source and are kept apart here.

How the values were obtained:
[1] = system: KB (nasopharyngeal carcinoma); assay: Cell growth inhibition (standard SRB assay), KB; format: cell-based, human; settings: 3 days of continuous treatment, read-out: Cell growth inhibition ED50
[2] = system: KB-7d (MRP-pleotrophic multidrug-resistant KB sub-clone); assay: Cell growth inhibition (standard SRB assay), KB-7d; format: cell-based, human; settings: 3 days of continuous treatment, read-out: Cell growth inhibition ED50
[3] = system: A549 (lung adenocarcinoma); assay: Cell growth inhibition (standard SRB assay), A549; format: cell-based, human; settings: 3 days of continuous treatment, read-out: Cell growth inhibition ED50
[4] = system: MCF-7 (breast adenocarcinoma); assay: Cell growth inhibition (standard SRB assay), MCF-7; format: cell-based, human; settings: 3 days of continuous treatment, read-out: Cell growth inhibition ED50
[5] = system: MCF-7 (breast adenocarcinoma); assay: Cytotoxicity (cell killing after 30 minutes of treatment), MCF-7; settings: kills 50% of the cells after 30 minutes of treatment
KB cells = assay: Clonogenic assay; format: cell-based, human; settings: 5 μM for 30 minutes, colonies after 12 days
Experimental: (§1) Biological Assay and Results. […] Freshly trypsinized KB cells were exposed to drug at 5, 0.5, or 0.05 μM for 30 minutes, respectively. Then, 250 or 500 cells were immediately plated and left undisturbed for 12 days. Colonies were fixed with formalin and stained with toluidine blue.

[6] = system: KB-7d (MRP-pleotrophic multidrug-resistant KB sub-clone); assay: Cytotoxicity (cell killing after 30 minutes of treatment), KB-7d; settings: kills 50% of the cells after 30 minutes of treatment
Experimental: as §1

[7] = system: A549 (lung adenocarcinoma); assay: Cytotoxicity (cell killing after 30 minutes of treatment), A549; settings: kills 50% of the cells after 30 minutes of treatment
[8] = system: KB (nasopharyngeal carcinoma); assay: Cytotoxicity (cell killing after 30 minutes of treatment), KB; settings: kills 50% of the cells after 30 minutes of treatment
Experimental: as §1

DNA topoisomerase II = assay: In vitro topoisomerase II inhibition, plasmid relaxation/cleavage assay; format: biochemical; settings: for Minimum concentration to detect linear DNA: DNA topoisomerase II inhibition; for Relative activity as topoisomerase II inhibitor versus standards: compared with GL-331 and etoposide

COc1cc(C2c3cc4c(cc3C(NC(=O)[C@H](Cc3ccc(O)cc3)NC(=O)OCc3ccccc3)C3COC(=O)C23)OCO4)cc(OC)c1O (stereo partly drawn) [Compound 10, 4′-O-demethyl-4β-[(N—CBZ-L-tyrosine-carbonyl)-amino]-4-desoxy-podophyllotoxin]
EC50 [1]: 2.3 µM | EC50 [2]: 6.7 µM | EC50 [3]: > 20 µM

COC(=O)[C@H](Cc1ccc(O)cc1)NC(=O)c1ccc(NC2c3cc4c(cc3C(c3cc(OC)c(O)c(OC)c3)C3C(=O)OCC23)OCO4)cc1 (stereo partly drawn) [Compound 12, 4′-O-demethyl-4β-[4″-(methyl L-tyrosine-N-carbonyl)-anilino]-4-desoxy-podophyllotoxin]
EC50 [4]: 4.5 µM | EC50 [1]: 1.9 µM | Cytotoxicity LD50 [5]: <3.1 µM | % Inhibition (KB cells): 99.5% | Cytotoxicity LD50 [6]: <20 µM | Cytotoxicity LD50 [7]: 12.5 µM | Cytotoxicity LD50 [8]: 1.7 µM | EC50 [2]: 5 µM | EC50 [3]: 2.4 µM | Minimum concentration to detect linear DNA (DNA topoisomerase II): 5 µM | Relative activity as topoisomerase II inhibitor versus standards (DNA topoisomerase II): at least as active as GL-331 and four-fold more active than etoposide

4′-O-demethyl-4β-[4″-(methyl L-tryptophan-N-carbonyl)-anilino]-4-desoxypodophyllotoxin [Compound 13]
EC50 [1]: 0.75 µM | % Inhibition (KB cells): 82% | EC50 [2]: < 0.1 µM | Minimum concentration to detect linear DNA (DNA topoisomerase II): 5 µM | Relative activity as topoisomerase II inhibitor versus standards (DNA topoisomerase II): at least as active as GL-331 and four-fold more active than etoposide

COc1cc([C@@H]2c3cc4c(cc3[C@@H](O[C@@H]3O[C@@H]5CO[C@@H](C)O[C@H]5[C@H](O)[C@H]3O)[C@H]3COC(=O)[C@H]23)OCO4)cc(OC)c1O [Etoposide]
EC50 ([4]; Homo sapiens, MCF7, 72 h): > 20 µM | EC50 ([1]; Homo sapiens, 72 h): 0.75 µM | Cytotoxicity LD50 [5]: 21 µM | Cytotoxicity LD50 [6]: >50 µM | Cytotoxicity LD50 [7]: >50 µM | Cytotoxicity LD50 [8]: 49.0 µM | EC50 ([2]; Homo sapiens, KB7D, 72 h): > 10 µM | EC50 ([3]; Homo sapiens, 72 h): 5.2 µM | Minimum concentration to detect linear DNA (DNA topoisomerase II): 20 µM

COc1cc([C@@H]2c3cc4c(cc3[C@@H](Nc3ccc([N+](=O)[O-])cc3)[C@H]3COC(=O)[C@H]23)OCO4)cc(OC)c1O [GL-331, reference compound]
EC50 [4]: 12 µM | EC50 [1]: 0.3 µM | Cytotoxicity LD50 [5]: 5.3 µM | % Inhibition (KB cells): 46% | Cytotoxicity LD50 [6]: <50 µM | Cytotoxicity LD50 [7]: 6.6 µM | Cytotoxicity LD50 [8]: 9.9 µM | EC50 [2]: 1.9 µM | EC50 [3]: 0.7 µM | Minimum concentration to detect linear DNA (DNA topoisomerase II): 5 µM

4′-O-demethyl-4β-{4″-[4′″-(benzimidazol-2″″-yl)-amido]-anilino}-4-desoxypodophyllotoxin [Compound 14]
EC50 [1]: > 25 µM
